From patent US9834518B2, “Compounds for inhibiting cell proliferation in EGFR-driven cancers” (ARIAD Pharmaceuticals, Inc., priority 2011, dated 2017)

Columns and labels:
[1] = target: human EGFR (native sequence) (Homo sapiens, UniProt P00533); experiment: Kinase inhibition, human EGFR (native sequence); format: biochemical; conditions: 10 μM ATP; 10 pt curves, 3 μM top concentration (singlicates)
Description: (§1) Kinase inhibitory activity of the compounds was measured against human EGFR (native sequence) and against EGFR bearing the L858R mution and the L858R/T790M double mutation (EGFR, L858R, and L858R/T790M, respectively in Table 1). Additional assays can be conducted with EGFR deletion mutants such as delE746-A750 with or without the additional T790M mutation. Assay conditions included 10 pt curves with 3 μM top concentration (singlicates) and 10 μM ATP.

[2] = target: EGFR bearing the L858R mution (Homo sapiens, UniProt P00533, L858R); experiment: Kinase inhibition, EGFR L858R; format: biochemical; conditions: 10 μM ATP; 10 pt curves, 3 μM top concentration (singlicates)
Description: as §1

[3] = target: EGFR bearing the L858R/T790M double mutation (Homo sapiens, UniProt P00533, L858R/T790M); experiment: Kinase inhibition, EGFR L858R/T790M; format: biochemical; conditions: 10 μM ATP; 10 pt curves, 3 μM top concentration (singlicates)
Description: as §1

[4] = tested on: BAF3 PARENTAL; experiment: Cell proliferation (MTT), BAF3 parental; format: cell-based; conditions: Mus musculus
Description: (§2) We also assessed the antiproliferative activity of compounds of Formula (I) against BaF3 cells expressing the target EGFR mutations or control (i.e., cell lines expressing wildtype EGFR). Assays were conducted using MTT.

[5] = target: BAF3 EGFR DEL T790M PURO POOL (Homo sapiens, UniProt P00533, DEL746-750/T790M, cells depend on it); experiment: Cell proliferation (MTT), BAF3 EGFR DEL T790M; format: cell-based
Description: as §2

[6] = tested on: BAF3 EGFR L858R-T790M PURO POOL; experiment: Cell proliferation (MTT), BAF3 EGFR L858R-T790M; format: cell-based; conditions: Ba/F3 EGFR
Description: as §2

human EGFR (native sequence), sequence (P00533 25-1210): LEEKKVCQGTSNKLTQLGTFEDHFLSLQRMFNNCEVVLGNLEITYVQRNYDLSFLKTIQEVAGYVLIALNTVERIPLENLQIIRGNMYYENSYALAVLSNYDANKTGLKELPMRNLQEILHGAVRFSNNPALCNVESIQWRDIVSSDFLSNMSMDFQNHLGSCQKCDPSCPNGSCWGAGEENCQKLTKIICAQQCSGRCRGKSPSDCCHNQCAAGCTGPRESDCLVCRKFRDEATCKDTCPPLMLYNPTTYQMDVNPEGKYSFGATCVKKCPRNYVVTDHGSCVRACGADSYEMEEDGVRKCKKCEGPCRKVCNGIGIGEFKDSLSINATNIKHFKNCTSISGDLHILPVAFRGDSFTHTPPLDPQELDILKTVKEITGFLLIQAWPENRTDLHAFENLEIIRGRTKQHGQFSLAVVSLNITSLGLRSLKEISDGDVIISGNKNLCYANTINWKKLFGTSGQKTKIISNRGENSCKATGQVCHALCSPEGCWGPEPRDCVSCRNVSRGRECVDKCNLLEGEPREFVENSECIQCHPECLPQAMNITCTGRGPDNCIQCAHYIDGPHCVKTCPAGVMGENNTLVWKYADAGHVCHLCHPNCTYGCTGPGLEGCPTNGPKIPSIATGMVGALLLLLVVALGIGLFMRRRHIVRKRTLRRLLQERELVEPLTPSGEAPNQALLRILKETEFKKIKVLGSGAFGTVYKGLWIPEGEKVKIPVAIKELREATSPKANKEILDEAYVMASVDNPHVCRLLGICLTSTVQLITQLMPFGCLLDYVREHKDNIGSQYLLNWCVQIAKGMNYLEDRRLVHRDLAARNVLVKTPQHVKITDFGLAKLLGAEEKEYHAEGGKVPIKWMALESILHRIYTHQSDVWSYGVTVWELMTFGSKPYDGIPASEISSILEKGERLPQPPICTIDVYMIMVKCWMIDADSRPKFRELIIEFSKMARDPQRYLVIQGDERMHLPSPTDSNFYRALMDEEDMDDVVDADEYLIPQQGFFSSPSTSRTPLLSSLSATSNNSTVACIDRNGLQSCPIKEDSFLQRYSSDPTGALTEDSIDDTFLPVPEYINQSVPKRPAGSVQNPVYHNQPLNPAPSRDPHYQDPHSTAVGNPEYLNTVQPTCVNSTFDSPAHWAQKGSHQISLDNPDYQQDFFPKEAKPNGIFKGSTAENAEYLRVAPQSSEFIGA
EGFR bearing the L858R/T790M double mutation, sequence (P00533 25-1210 T790M/L858R): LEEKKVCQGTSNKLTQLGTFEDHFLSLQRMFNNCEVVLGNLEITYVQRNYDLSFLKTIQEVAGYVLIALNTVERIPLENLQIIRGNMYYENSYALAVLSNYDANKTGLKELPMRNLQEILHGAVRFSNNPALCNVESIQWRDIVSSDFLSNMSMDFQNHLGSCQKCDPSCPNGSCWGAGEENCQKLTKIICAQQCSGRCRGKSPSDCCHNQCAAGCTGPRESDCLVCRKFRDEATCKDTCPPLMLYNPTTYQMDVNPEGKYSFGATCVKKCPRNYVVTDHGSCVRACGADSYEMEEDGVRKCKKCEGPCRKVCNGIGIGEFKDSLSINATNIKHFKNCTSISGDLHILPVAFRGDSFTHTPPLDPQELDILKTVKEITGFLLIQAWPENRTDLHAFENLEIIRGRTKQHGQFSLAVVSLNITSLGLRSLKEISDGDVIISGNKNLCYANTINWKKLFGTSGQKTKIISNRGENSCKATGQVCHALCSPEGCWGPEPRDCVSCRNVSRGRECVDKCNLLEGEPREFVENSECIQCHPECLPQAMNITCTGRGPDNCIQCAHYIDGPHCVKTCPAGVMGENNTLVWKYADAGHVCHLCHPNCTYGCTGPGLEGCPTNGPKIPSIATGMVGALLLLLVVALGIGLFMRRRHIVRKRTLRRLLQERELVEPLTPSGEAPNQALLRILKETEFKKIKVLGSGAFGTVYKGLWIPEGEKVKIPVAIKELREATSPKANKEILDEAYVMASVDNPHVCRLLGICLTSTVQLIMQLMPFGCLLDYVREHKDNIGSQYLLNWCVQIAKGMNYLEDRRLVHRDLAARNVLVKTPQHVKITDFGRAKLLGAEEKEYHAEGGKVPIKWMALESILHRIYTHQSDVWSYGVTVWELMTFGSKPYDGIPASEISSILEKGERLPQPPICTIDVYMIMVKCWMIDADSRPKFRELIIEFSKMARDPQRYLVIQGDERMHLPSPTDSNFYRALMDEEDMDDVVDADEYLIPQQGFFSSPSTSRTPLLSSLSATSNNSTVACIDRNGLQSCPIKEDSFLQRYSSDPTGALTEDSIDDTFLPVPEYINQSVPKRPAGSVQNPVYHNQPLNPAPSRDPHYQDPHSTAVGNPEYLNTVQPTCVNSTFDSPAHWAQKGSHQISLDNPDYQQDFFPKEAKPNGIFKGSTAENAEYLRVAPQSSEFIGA
EGFR bearing the L858R mution, sequence (P00533 25-1210 L858R): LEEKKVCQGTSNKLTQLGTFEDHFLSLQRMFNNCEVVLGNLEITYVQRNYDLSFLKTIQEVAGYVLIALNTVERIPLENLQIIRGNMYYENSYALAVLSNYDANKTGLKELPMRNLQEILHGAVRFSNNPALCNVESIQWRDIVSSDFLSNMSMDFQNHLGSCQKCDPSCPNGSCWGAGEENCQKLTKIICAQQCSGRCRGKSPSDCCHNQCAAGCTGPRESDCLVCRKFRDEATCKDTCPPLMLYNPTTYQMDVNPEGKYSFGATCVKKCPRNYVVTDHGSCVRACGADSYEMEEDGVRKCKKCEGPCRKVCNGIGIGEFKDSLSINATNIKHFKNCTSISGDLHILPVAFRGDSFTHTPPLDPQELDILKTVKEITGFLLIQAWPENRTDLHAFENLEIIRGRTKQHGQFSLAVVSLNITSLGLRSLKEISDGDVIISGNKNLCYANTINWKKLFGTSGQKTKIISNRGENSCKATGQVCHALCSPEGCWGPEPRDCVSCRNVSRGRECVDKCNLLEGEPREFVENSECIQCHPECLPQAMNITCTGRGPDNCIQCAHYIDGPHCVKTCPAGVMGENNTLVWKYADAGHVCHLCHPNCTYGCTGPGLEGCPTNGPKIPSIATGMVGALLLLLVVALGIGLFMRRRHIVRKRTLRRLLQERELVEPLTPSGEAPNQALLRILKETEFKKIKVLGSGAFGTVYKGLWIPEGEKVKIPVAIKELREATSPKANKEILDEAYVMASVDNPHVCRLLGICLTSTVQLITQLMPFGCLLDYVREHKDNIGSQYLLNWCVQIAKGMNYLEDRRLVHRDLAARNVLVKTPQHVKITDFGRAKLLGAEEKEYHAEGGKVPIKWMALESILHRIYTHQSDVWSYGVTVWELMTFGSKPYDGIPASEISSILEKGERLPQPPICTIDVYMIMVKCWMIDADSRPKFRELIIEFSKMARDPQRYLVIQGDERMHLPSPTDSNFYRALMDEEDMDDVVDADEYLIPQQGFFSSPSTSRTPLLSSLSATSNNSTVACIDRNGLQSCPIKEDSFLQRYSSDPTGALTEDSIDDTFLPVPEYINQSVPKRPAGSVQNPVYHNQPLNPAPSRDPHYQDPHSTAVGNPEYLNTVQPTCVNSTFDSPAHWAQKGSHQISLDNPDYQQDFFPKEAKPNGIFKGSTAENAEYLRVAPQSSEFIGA
BAF3 EGFR DEL T790M PURO POOL, sequence (P00533 with tags, fused parts or gaps DEL746-750/T790M): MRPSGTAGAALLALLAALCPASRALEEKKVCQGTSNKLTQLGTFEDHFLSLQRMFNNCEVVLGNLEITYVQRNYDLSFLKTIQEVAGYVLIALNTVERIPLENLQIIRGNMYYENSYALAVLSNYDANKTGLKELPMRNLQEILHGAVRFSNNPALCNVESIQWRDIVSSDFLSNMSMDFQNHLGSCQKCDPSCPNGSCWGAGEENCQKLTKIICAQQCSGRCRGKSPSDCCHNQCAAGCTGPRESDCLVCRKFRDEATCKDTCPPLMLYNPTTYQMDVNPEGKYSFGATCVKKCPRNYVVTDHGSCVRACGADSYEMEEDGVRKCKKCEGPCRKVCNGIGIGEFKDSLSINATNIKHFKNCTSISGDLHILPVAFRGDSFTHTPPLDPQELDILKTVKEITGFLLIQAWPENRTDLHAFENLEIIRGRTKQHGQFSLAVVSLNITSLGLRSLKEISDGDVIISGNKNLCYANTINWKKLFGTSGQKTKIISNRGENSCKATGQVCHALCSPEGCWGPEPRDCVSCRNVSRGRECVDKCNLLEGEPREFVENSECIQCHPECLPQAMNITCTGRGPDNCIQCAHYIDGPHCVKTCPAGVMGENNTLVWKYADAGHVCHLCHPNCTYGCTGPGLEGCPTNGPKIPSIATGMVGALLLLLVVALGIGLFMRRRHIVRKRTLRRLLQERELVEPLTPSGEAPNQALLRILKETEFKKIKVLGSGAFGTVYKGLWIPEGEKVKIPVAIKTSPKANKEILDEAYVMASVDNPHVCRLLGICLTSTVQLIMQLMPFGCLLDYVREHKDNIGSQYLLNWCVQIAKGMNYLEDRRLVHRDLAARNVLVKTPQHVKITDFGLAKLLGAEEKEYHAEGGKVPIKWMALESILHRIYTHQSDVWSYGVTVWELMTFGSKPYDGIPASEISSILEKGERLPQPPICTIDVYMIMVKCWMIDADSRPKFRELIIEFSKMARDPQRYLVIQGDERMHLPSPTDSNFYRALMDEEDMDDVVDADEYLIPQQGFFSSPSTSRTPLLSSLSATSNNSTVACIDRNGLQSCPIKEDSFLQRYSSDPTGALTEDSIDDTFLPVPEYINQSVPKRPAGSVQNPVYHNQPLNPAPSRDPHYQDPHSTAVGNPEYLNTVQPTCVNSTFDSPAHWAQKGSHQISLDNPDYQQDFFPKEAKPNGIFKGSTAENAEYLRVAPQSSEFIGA

| SMILES | IC50 [1] [nM] | IC50 [2] [nM] | IC50 [3] [nM] | IC50 [5] [nM] | IC50 [6] [nM] | IC50 [4] [nM] |
| --- | --- | --- | --- | --- | --- | --- |
| C=CP(C)(=O)Cc1ccc(OC)c(Nc2ncc(Cl)c(Nc3ccccc3P(C)(C)=O)n2)c1 (centres unmarked) [Example 60, (2-((5-chloro-2-((2-methoxy-5-((methyl(vinyl)phosphoryl)methyl)phenyl)amino)pyrimidin-4-yl)amino)phenyl)dimethylphosphine oxide] | ≥ 250 | ≥ 250 | ≥ 250 | ≥ 250 | ≥ 250 | ≥ 250 |
| C=CC(=O)N[C@@H]1CCC[C@@H](Nc2ncc(Cl)c(Nc3ccccc3P(C)(C)=O)n2)C1 (racemic) [Example 42, rac-N-((1R,3R)-3-((5-chloro-4-((2-(dimethylphosphoryl)phenyl)amino)pyrimidin-2-yl)amino)cyclohexyl)acrylamide] | ≥ 250 | ≥ 250 | ≥ 250 | ≥ 250 | – | ≥ 250 |
| C=CC(=O)N(CCCN(C)C)c1ccc(OC)c(Nc2ncc(Cl)c(Nc3ccccc3P(C)(C)=O)n2)c1 [Example 21, N-(3-((5-chloro-4-((2-(dimethylphosphoryl)phenyl)amino)pyrimidin-2-yl)amino)-4-methoxyphenyl)-N-(3-(dimethylamino)propyl)acrylamide] | ≥ 250 | 101 to 250 | 51 to 100 | 101 to 250 | ≥ 250 | ≥ 250 |
| C=CC(=O)N(C)c1ccc(OC)c(Nc2ncc(Cl)c(Nc3ccccc3P(C)(C)=O)n2)c1 [Example 44, N-(3-((5-chloro-4-((2-(dimethylphosphoryl)phenyl)amino)pyrimidin-2-yl)amino)-4-methoxyphenyl)-N-methylacrylamide] | 101 to 250 | < 51 | < 51 | < 51 | < 51 | ≥ 250 |
| C=CC(=O)Nc1ccc(Nc2ncc(Cl)c(Nc3ccccc3P(C)(C)=O)n2)c(OC)c1 [Example 45, N-(4-((5-chloro-4-((2-(dimethylphosphoryl)phenyl)amino)pyrimidin-2-yl)amino)-3-methoxyphenyl)acrylamide] | ≥ 250 | 101 to 250 | ≥ 250 | ≥ 250 | – | ≥ 250 |
| COc1ccc(NC(=O)/C=C/CN2CCOCC2)cc1Nc1ncc(Cl)c(Nc2ccccc2P(C)(C)=O)n1 [Example 3, (E)-N-(3-((5-chloro-4-((2-(dimethylphosphoryl)phenyl)amino)pyrimidin-2-yl)amino)-4-methoxyphenyl)-4-morpholinobut-2-enamide] | ≥ 250 | < 51 | 51 to 100 | – | – | ≥ 250 |
| COc1ccc(NC(=O)/C=C/CN2CCN(C)CC2)cc1Nc1ncc(Cl)c(Nc2ccccc2P(C)(C)=O)n1 [Example 4, (E)-N-(3-((5-chloro-4-((2-(dimethylphosphoryl)phenyl)amino)pyrimidin-2-yl)amino)-4-methoxyphenyl)-4-(4-methylpiperazin-1-yl)but-2-enamide] | ≥ 250 | < 51 | 101 to 250 | ≥ 250 | – | ≥ 250 |
| C#CC(=O)Nc1ccc(OC)c(Nc2ncc(Cl)c(Nc3ccccc3P(C)(C)=O)n2)c1 [Example 6a, N-(3-((5-chloro-4-((2-(dimethylphosphoryl)phenyl)amino)pyrimidin-2-yl)amino)-4-methoxyphenyl)propiolamide] | < 51 | < 51 | < 51 | ≥ 250 | – | ≥ 250 |
| C=CS(=O)(=O)Nc1ccc(OC)c(Nc2ncc(Cl)c(Nc3ccccc3P(C)(C)=O)n2)c1 [Example 7, N-(3-((5-chloro-4-((2-(dimethylphosphoryl)phenyl)amino)pyrimidin-2-yl)amino)-4-methoxyphenyl)ethenesulfonamide] | < 51 | < 51 | < 51 | – | – | ≥ 250 |
| C=CC(=O)Nc1ccc(OC)c(Nc2nc(Nc3ccccc3P(C)(C)=O)c3c(F)c[nH]c3n2)c1 [Example 23, N-(3-((4-((2-(dimethylphosphoryl)phenyl)amino)-5-fluoro-7H-pyrrolo[2,3-d]pyrimidin-2-yl)amino)-4-methoxyphenyl)acrylamide] | ≥ 250 | ≥ 250 | 101 to 250 | ≥ 250 | – | ≥ 250 |
| C=CC(=O)N[C@H]1CCC[C@@H](Nc2ncc(Cl)c(Nc3ccccc3P(C)(C)=O)n2)C1 (stereo in doubt) [Example 43, N-(3-((5-chloro-4-((2-(dimethylphosphoryl)phenyl)amino)pyrimidin-2-yl)amino)cyclohexyl)acrylamide] | ≥ 250 | ≥ 250 | ≥ 250 | ≥ 250 | – | ≥ 250 |
| C/C=C/C(=O)Nc1ccc(OC)c(Nc2ncc(Cl)c(Nc3ccccc3P(C)(C)=O)n2)c1 [Example 5a, (E)-N-(3-((5-chloro-4-((2-(dimethylphosphoryl)phenyl)amino)pyrimidin-2-yl)amino)-4-methoxyphenyl)but-2-enamide] | – | ≥ 250 | ≥ 250 | ≥ 250 | – | ≥ 250 |
| COc1ccc(NC(=O)C=C(C)C)cc1Nc1ncc(Cl)c(Nc2ccccc2P(C)(C)=O)n1 [Example 5b, N-(3-((5-chloro-4-((2-(dimethylphosphoryl)phenyl)amino)pyrimidin-2-yl)amino)-4-methoxyphenyl)-3-methylbut-2-enamide] | – | ≥ 250 | ≥ 250 | ≥ 250 | – | ≥ 250 |
| C=C(CNc1ccc(OC)c(Nc2ncc(Cl)c(Nc3ccccc3P(C)(C)=O)n2)c1)C(=O)OC [Example 16, methyl 2-(((3-((5-chloro-4-((2-(dimethylphosphoryl)phenyl)amino)pyrimidin-2-yl)amino)-4-methoxyphenyl)amino)methyl)acrylate] | ≥ 250 | < 51 | 101 to 250 | – | – | ≥ 250 |

Now from value to molecule, other results behind:

| IC50 [1] [nM] | IC50 [2] [nM] | IC50 [3] [nM] | IC50 [5] [nM] | IC50 [6] [nM] | SMILES | IC50 [4] [nM] |
| --- | --- | --- | --- | --- | --- | --- |
| < 51 | < 51 | < 51 | < 51 | < 51 | C=CC(=O)Nc1cc(Nc2ncc(Cl)c(Nc3ccccc3P(C)(C)=O)n2)c(OC)cc1OC(COC)CN(CC)CC (centres unmarked) [Example 27] | ≥ 250 |
| 51 to 100 | < 51 | < 51 | < 51 | < 51 | C=CC(=O)Nc1ccc(OC)c(Nc2ncc(Cl)c(Nc3cccc(C)c3P(C)(C)=O)n2)c1 [Example 14, N-(3-((5-chloro-4-((2-(dimethylphosphoryl)-3-methylphenyl)amino)pyrimidin-2-yl)amino)-4-methoxyphenyl)acrylamide] | ≥ 250 |
| 101 to 250 | < 51 | < 51 | 51 to 100 | 51 to 100 | C=CC(=O)Nc1cccc(Oc2nc(Nc3ccc(P(C)(C)=O)cc3OC)ncc2Cl)c1 [Example 9, N-(3-((5-chloro-2-((4-(dimethylphosphoryl)-2-methoxyphenyl)amino)pyrimidin-4-yl)oxy)phenyl)acrylamide] | ≥ 250 |
| 51 to 100 | < 51 | < 51 | < 51 | < 51 | C=CC(=O)Nc1cc(Nc2ncc(Cl)c(Nc3ccc(F)cc3P(C)(C)=O)n2)c(OC)cc1F [Example 55, N-(5-((5-chloro-4-((2-(dimethylphosphoryl)-4-fluorophenyl)amino)pyrimidin-2-yl)amino)-2-fluoro-4-methoxyphenyl)acrylamide] | ≥ 250 |
| < 51 | < 51 | < 51 | < 51 | < 51 | C=CC(=O)Nc1cc(Nc2ncc(Cl)c(Nc3ccccc3P(C)(C)=O)n2)c(OC)cc1N(CC)CCN(CC)CC [Example 61, N-(5-((5-chloro-4-((2-(dimethylphosphoryl)phenyl)amino)pyrimidin-2-yl)amino)-2-((2-(diethylamino)ethyl)(ethyl)amino)-4-methoxyphenyl)acrylamide] | ≥ 250 |
| 51 to 100 | < 51 | < 51 | < 51 | < 51 | C=CC(=O)Nc1ccc(OC)c(Nc2ncc(Cl)c(Nc3cccc(F)c3P(C)(C)=O)n2)c1 [Example 53, N-(3-((5-chloro-4-((2-(dimethylphosphoryl)-3-fluorophenyl)amino)pyrimidin-2-yl)amino)-4-methoxyphenyl)acrylamide] | ≥ 250 |
| < 51 | < 51 | < 51 | < 51 | < 51 | C=CC(=O)Nc1cc(Nc2ncc(Cl)c(Nc3ccccc3P(C)(C)=O)n2)c(OC)cc1OCCN(C)CCOC [Example 39, N-(5-((5-chloro-4-((2-(dimethylphosphoryl)phenyl)amino)pyrimidin-2-yl)amino)-4-methoxy-2-(2-((2-methoxyethyl)(methyl)amino)ethoxy)phenyl)acrylamide] | ≥ 250 |
| < 51 | < 51 | < 51 | < 51 | < 51 | C=CC(=O)Nc1ccc(OC)c(Nc2ncc(Cl)c(Nc3ccccc3P(=O)(CC)CC)n2)c1 [Example 15, N-(3-((5-chloro-4-((2-(diethylphosphoryl)phenyl)amino)pyrimidin-2-yl)amino)-4-methoxyphenyl)acrylamide] | ≥ 250 |
